# Assay results as given in ChEMBL document CHEMBL1201862, “PubChem BioAssay data set” (2004).
# Activity calls are given as the source filed them.
# Legend:
# [1] = biological target: T1, Adenosylmethionine-8-amino-7-oxononanoate aminotransferase (Mycobacterium tuberculosis, UniProt P9WQ81); test: Mycobacterium tuberculosis BioA enzyme inhibitor Measured in Biochemical System Using Plate Reader - 2163-02_Inhibitor_Dose_CherryPick_Activity.; assay type: functional, Mycobacterium tuberculosis UT205
# T1 sequence (P9WQ81 whole entry): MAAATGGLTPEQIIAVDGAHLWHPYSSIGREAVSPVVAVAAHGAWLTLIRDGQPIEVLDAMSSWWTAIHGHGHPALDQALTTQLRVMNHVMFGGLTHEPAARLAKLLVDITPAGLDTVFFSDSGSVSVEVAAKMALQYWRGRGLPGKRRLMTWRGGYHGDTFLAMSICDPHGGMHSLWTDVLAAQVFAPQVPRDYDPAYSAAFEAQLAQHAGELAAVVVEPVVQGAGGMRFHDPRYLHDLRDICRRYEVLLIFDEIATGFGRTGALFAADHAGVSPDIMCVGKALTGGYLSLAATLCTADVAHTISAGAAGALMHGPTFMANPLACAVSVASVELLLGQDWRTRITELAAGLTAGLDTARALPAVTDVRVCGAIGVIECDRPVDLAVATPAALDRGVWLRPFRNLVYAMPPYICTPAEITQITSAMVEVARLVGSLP
# BJ [2] = test: cytotoxicity toward BJ-TERT-LT-ST fibroblasts, dose response, cell-based, RAS-independent, luminescence (AID 1935); assay type: functional; conditions: Homo sapiens;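 also: BJ fibroblasts immortalized with TERT plus LT and ST oncogenes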
# cells [3] = assay type: functional, cell-based
# Streptococcus = test: Group A Streptococcus viability loss, dose response, counter-screen for streptokinase expression inhibitor project, luminescence, BacTiterGlo (AID 1915); assay type: functional, organism-based;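 also: potency for reduction of bacterial viability or growth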
# [4] = biological target: T2, Replicative DNA helicase DnaB (Mycobacterium tuberculosis, UniProt P9WMR3); test: DnaB intein splicing inhibitors, dose response, biochemical, cell-free fluorescence (AID 449749); assay type: functional
# T2 sequence (P9WMR3 whole entry): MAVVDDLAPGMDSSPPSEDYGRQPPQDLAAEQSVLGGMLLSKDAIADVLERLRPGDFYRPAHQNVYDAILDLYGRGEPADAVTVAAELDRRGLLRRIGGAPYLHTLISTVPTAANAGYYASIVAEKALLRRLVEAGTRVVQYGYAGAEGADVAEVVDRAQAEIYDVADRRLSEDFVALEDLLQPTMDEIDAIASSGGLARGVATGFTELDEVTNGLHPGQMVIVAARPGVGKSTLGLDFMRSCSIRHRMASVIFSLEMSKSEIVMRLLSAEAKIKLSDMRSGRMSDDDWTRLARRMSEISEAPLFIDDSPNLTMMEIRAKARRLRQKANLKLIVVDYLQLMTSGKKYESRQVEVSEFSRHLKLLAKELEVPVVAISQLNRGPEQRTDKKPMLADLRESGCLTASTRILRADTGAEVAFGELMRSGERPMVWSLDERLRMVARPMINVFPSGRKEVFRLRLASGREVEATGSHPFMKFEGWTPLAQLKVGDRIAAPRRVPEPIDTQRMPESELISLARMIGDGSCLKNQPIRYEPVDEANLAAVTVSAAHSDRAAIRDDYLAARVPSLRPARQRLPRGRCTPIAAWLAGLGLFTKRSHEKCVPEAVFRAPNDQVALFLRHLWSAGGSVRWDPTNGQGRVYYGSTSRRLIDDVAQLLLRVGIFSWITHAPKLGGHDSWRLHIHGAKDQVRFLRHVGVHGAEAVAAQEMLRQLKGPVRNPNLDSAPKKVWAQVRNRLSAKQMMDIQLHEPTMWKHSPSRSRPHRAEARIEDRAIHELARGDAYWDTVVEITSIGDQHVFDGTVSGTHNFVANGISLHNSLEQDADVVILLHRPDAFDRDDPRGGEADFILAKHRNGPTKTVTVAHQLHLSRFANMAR
# INS1 = test: beta cell apoptosis inhibitors, cytokine rescue, dose response, luminescence, retest (AID 449756); assay type: functional, cell-based; conditions: Rattus norvegicus;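 also: cell death triggered by IL-1 beta plus TNF-alpha plus IFN-gamma mixture; protective hits raise ATP signal compared with cytokine alone wells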
# Paired box protein Pax-8 = Paired box protein Pax-8 (Homo sapiens, UniProt Q06710); test: inhibitors of PAX8-driven TPO luciferase reporter, dose response, RMG-I cells, cherry-pick (AID 687027); assay type: functional, cell-based;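 also: luciferase reporter driven by Pax8 target thyroperoxidase promoter measured by SteadyGlo luminescence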
# [5] = cytotoxicity toward DRD oncogenic fibroblasts, dose response, cell-based, non-viral oncogenic, luminescence (AID 1934); assay type: functional; conditions: Homo sapiens
# [6] = NIH-3T3 fibroblast cytotoxicity, dose response, cytotoxicity control, cell-based, fluorescence, Alamar Blue, secondary assay (AID 2327); assay type: functional;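 also: NIH-3T3 mouse fibroblasts cultured with fluconazole at 8 µg/mL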
# Protein RecA = biological target: T3, Protein RecA (Mycobacterium tuberculosis, UniProt P9WHJ3); test: Fluorescence Cell-Free Homogeneous Dose Retest to Identify Inhibitors of RecA-Intein Splicing Activity. [Related pubchem assays (depositor defined):AID2097, AID2223, AID489010, AID492950]; assay type: functional
# T3 sequence (P9WHJ3 whole entry): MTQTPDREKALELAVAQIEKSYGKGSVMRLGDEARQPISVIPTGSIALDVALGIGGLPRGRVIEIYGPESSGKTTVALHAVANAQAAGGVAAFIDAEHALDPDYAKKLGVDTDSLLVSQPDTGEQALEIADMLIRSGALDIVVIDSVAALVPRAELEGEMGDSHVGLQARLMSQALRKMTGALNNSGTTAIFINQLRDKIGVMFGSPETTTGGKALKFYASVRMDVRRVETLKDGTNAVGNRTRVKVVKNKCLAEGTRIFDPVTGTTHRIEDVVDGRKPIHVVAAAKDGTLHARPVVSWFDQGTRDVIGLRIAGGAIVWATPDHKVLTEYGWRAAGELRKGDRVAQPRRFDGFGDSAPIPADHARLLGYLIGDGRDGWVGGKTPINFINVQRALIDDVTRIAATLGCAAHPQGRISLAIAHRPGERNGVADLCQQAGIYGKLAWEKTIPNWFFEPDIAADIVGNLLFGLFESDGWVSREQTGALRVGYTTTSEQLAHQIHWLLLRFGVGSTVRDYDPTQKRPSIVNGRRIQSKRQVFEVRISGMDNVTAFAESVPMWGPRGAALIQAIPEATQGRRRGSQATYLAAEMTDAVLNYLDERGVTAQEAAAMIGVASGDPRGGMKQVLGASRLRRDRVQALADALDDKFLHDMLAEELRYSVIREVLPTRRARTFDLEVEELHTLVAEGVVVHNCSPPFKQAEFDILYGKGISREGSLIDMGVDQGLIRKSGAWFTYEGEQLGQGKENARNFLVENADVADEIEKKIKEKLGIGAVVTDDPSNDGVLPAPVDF
# Nonstructural protein 1 = Nonstructural protein 1 (Influenza A virus, UniProt Q194T2); assay type: functional, Influenza A virus (A/California/07/2009(H1N1))
# [7] = C. albicans growth with fluconazole, confirmation, fluorescence, retest (AID 2467); assay type: functional, cell-based
# cells [8] = assay type: functional, cell-based; remark: listed apart in the source
# [9] = biological target: T4, Heat shock factor protein 1 (Mus musculus, UniProt P38532); test: HSF1 potentiators in luciferase reporter cells, confirmation, cell-based, NIH3T3, luminescence, dose retest (AID 435004); assay type: functional;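 also: stress induced by proteasome inhibitor MG132 added 30 min after compound; luciferase reporter driven by HSF1 response element in NIH3T3 cells; actives raise luminescence as potentiators of the MG132 stress response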
# T4 sequence (P38532 whole entry): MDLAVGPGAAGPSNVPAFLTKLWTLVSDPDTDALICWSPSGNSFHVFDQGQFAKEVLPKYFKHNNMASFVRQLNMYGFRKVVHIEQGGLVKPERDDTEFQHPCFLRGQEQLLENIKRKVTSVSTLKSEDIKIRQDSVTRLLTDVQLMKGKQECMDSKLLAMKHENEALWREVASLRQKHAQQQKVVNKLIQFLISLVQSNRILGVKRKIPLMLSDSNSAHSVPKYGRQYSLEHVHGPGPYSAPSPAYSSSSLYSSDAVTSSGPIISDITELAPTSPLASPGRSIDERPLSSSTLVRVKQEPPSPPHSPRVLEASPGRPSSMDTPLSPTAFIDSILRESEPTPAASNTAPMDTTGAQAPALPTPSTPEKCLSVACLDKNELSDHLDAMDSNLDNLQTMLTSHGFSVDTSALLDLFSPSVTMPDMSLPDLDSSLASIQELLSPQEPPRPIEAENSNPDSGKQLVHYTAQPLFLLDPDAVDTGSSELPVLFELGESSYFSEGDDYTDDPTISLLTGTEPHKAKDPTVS
# [10] = system: Streptococcus sp. 'group A'; test: growth inhibition of control SK(-) GAS strain, dose response, counter-screen for streptokinase expression inhibitor project, luminescence, kanamycin, BacTiterGlo, confirmation (AID 1900); assay type: functional, organism-based
# [11] = biological target: Dual specificity tyrosine-phosphorylation-regulated kinase 1A (Rattus norvegicus, UniProt Q63470); assay type: biochemical, Homo sapiens
# BJ [12] = test: cells; assay type: functional, cell-based; conditions: Homo sapiens
# BJ [13] = test: cytotoxicity toward BJ-TERT fibroblasts, dose response, cell-based, RAS-independent, luminescence (AID 1933); assay type: functional; conditions: Homo sapiens
# [14] = biological target: Photoreceptor-specific nuclear receptor (Homo sapiens, UniProt Q9Y5X4); assay type: functional, cell-based;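 also: CHO-S cells with Gal4-NCOR and VP16-NR2E3 two-hybrid luciferase reporter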
# [15] = biological target: Ras and Rab interactor 1/Tyrosine-protein kinase ABL1 (Homo sapiens, UniProt P00519+Q13671); assay type: functional;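 also: biochemical TR-FRET dose-response test measuring inhibition of binding between Rin1 and Abl proteins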
# [16] = biological target: T5, Small ubiquitin-related modifier 1 (Homo sapiens, UniProt P63165); test: inhibitors of SUMO1 peptide binding, dose response, biochemical, fluorescence polarization, uHTS hits (AID 624382); assay type: functional; conditions: read-out: IC50_Mean
# [17] = biological target: T5, Small ubiquitin-related modifier 1; test: inhibitors of SUMO1 partner interactions, dose response, biochemical, FRET (AID 624383); assay type: functional; conditions: read-out: IC50_Mean
# Vero = test: cells; assay type: functional; conditions: Chlorocebus sabaeus
# P388 = test: cells; assay type: functional; conditions: Mus musculus
# P388/ADR = test: cells; assay type: functional; conditions: Mus musculus
# [18] = Fluorescence-based cell-based high throughput dose response assay for inhibitors of the interaction of nucleotide-binding oligomerization domain containing 2 (NOD2) and the receptor-interacting serine-threonine kinase 2 (RIPK2).; assay type: functional; conditions: Homo sapiens
# [19] = biological target: Heat shock protein HSP 90-alpha (Homo sapiens, UniProt P07900); assay type: functional, organism-based
# Chain of Ras and Rab interactor 1/Tyrosine-protein kinase ABL1 (P00519 whole entry): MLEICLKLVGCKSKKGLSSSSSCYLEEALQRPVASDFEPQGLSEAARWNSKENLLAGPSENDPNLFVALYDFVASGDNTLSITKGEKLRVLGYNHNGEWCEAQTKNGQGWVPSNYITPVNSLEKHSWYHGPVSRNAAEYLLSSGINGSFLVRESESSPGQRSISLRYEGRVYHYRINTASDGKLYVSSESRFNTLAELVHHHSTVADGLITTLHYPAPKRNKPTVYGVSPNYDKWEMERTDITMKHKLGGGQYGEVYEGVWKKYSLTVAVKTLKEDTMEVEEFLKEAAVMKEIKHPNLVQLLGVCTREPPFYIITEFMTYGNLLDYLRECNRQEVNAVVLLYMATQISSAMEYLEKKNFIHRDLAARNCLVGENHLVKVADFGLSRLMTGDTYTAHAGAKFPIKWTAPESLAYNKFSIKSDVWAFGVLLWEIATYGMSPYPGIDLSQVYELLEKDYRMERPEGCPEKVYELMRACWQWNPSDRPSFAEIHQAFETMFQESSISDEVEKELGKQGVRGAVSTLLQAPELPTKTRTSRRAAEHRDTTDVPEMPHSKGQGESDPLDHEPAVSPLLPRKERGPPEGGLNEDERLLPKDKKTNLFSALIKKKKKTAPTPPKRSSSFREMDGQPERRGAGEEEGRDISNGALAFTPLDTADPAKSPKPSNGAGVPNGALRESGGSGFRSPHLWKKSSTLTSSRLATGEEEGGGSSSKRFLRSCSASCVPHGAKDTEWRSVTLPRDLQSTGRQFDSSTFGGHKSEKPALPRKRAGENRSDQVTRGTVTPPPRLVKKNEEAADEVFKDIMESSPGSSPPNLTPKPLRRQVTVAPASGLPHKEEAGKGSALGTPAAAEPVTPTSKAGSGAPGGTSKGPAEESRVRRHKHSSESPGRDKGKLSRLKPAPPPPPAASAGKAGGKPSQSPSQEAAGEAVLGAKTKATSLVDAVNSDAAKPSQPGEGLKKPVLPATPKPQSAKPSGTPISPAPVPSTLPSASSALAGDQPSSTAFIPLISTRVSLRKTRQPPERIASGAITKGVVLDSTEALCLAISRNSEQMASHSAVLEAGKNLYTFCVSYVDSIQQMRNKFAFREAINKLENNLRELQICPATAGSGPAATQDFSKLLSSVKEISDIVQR
# Chain of Ras and Rab interactor 1/Tyrosine-protein kinase ABL1 (Q13671 whole entry): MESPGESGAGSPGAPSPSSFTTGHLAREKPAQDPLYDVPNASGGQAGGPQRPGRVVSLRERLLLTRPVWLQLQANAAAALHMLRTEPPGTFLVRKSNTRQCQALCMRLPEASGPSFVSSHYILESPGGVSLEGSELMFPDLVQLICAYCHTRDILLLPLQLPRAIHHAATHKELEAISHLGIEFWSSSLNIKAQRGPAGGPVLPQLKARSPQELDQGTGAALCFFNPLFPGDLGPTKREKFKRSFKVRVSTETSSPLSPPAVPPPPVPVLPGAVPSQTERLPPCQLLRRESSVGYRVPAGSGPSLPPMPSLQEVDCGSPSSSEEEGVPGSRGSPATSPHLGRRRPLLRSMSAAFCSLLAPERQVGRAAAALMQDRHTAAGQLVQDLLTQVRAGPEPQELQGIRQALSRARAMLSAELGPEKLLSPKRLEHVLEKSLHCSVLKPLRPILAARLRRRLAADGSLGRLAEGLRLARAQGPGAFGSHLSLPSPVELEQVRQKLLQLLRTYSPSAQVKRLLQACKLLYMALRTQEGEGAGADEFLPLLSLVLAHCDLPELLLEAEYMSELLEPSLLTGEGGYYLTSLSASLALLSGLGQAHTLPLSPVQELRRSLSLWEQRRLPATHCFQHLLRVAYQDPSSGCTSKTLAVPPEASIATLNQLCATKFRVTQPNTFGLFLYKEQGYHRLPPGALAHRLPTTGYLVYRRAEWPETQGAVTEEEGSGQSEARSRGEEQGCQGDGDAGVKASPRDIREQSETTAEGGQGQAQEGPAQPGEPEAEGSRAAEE
# Chain of Photoreceptor-specific nuclear receptor (Q9Y5X4 whole entry, the tested form may be a part): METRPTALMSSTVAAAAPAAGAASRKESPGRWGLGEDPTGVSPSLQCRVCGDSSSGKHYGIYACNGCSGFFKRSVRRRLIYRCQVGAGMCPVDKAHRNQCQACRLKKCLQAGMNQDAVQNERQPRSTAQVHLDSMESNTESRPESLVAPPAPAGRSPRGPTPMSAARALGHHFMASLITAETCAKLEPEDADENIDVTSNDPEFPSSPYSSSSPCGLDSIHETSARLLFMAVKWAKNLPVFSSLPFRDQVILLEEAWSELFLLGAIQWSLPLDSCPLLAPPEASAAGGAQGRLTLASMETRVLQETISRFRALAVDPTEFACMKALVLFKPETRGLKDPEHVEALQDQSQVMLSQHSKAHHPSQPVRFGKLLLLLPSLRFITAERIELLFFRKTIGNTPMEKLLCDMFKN
# T5 sequence (P63165 whole entry): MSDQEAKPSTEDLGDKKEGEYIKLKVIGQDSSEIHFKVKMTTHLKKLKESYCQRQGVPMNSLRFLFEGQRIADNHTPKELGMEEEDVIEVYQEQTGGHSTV
# Chain of Paired box protein Pax-8 (Q06710 whole entry): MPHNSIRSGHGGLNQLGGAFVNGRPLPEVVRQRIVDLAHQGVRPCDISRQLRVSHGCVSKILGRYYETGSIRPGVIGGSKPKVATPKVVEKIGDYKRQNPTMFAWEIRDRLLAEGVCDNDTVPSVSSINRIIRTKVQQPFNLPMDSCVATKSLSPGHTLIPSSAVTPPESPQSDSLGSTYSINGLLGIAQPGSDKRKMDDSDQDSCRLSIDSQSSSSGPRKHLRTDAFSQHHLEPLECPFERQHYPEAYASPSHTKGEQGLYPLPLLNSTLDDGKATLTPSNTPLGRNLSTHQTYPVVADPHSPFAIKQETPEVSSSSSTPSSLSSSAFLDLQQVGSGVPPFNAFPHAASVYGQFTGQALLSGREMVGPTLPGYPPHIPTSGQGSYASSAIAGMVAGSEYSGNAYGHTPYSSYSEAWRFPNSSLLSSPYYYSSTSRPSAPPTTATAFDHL
# Chain of Nonstructural protein 1 (Q194T2 whole entry): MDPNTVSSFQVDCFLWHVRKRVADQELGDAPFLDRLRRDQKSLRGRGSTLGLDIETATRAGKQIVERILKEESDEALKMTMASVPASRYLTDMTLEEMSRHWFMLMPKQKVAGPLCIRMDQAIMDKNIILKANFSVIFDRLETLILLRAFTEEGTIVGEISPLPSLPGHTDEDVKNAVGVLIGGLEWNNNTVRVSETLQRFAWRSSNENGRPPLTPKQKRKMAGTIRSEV
smiles,measurement,setting,value
Cc1ccc(Cc2c(C)nc3nc(SCC(=O)NCCN4CCOCC4)nn3c2C)cc1,AC50,[1],12.6 µM (active)
Oc1[nH]c2ccc(Br)cc2c1N=NC(=S)N1CCOCC1,EC50,BJ [2],5.1 µM (inconclusive)
same,EC50,cells [3],137 µM (active)
same,EC50,Streptococcus,0.167 µM (active)
same,AC50,[4],> 380 µM (inactive)
same,AC50,INS1,1.6 µM (active)
same,AC50,Paired box protein Pax-8,1.55 µM (active)
same,EC50,[5],7.46 µM (inconclusive)
same,EC50,[6],> 150 µM (inconclusive)
same,EC50,Protein RecA,22.7 µM (active)
same,IC50,Nonstructural protein 1,19.9 µM (active)
same,EC50,[7],3.18 µM (active)
same,EC50,cells [8],> 350 µM (not active)
same,EC50,[9],> 260 µM (inactive)
same,EC50,[10],< 0.06 µM (active)
same,AC50,[11],7.39 µM (active)
same,EC50,BJ [12],12.8 µM (inconclusive)
same,EC50,BJ [13],1.81 µM (inconclusive)
same,IC50,[14],1.81 µM (active)
CCOC(=O)CCCCC(=O)c1[nH]c(=O)[nH]c1CSc1nc(C)cc(C)n1,IC50,[15],2.39 µM (active)
O=C(CCS(=O)(=O)c1ccc(Br)cc1)N1CCCCCC1,IC50,[16],> 66.6 µM (inactive)
same,IC50,[17],13 µM (active)
O=C1CNC(=O)N1CC(O)Cn1c2ccccc2c2ccccc21 (centres undefined),IC50,[15],11.9 µM (inactive)
COc1ccc(CC2C(=O)NC(C)C(=O)N(C)C3Cc4ccc(cc4)Oc4cc(ccc4O)CC(C(=O)NC(C)C(=O)NC(C)C(=O)N2C)N(C)C3=O)cc1 (centres undefined),AC50,Paired box protein Pax-8,< 0.26 µM (active)
same,CC50,Vero,3.44 µM (active)
same,GI50,P388,0.0175 µM (active)
same,GI50,P388/ADR,3.94 µM (inactive)
same,IC50,[18],49.8 µM (inactive)
CC1CC(C)C(=NNC(N)=O)C(C(O)CC2CCC(=O)NC2=O)C1 (centres undefined),CC50,Vero,> 25 µM (active)
same,AC50,[19],< 0.195 µM (active)
same,IC50,[14],2.53 µM (active)
C[C@@H]1CCCCO[C@@H](CN(C)S(=O)(=O)c2ccccc2)[C@@H](C)CN([C@H](C)CO)C(=O)c2cc(NS(=O)(=O)c3ccc(F)cc3)ccc2O1,IC50,[15],1.9 µM (active)
O=C(c1cc(COc2cccc3cccnc23)on1)N1CCC[C@H]1CO,IC50,[15],2.94 µM (active)
COCCNC(=O)C[C@@H]1CC[C@@H]2[C@@H](COc3ccc(NC(=O)Nc4cccc(F)c4)cc3C(=O)N2C)O1,AC50,[1],10.8 µM (active)
